One test relates to HPK1 p-SLP-76. Kind of test: HPK1 p-SLP-76 inhibition assay in human PBMC (HTRF). In kind it is cell-based. The note with it: 6 h compound, anti-CD3 stimulation 20 min. Put shortly:
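Human PBMC starved overnight in 0.5% FBS, treated with compound 6 h at 37° C, then stimulated with anti-CD3 (10 ug/mL final) for 20 min. Lysates analysed for phospho-SLP76 by HTRF after overnight detection-antibody incubation at 25° C.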
(TR-FRET usually uses a lanthanide donor and a delayed reading to cut background.)

The target in test [1] is T1, HPK1 protein (Homo sapiens, UniProt Q92918).
T1 construct: Frozen human PBMC were purchased from Shanghai OribioTech; host or cells: human PBMC
Kind of test: HPK1 protein degradation in human PBMC (western blot). In kind it is cell-based. The note with it: 18 h incubation. Put shortly:
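Recovered frozen human PBMC in RPMI1640 exposed to a range of compound concentrations for 18 h. Lysates normalized by BCA and HPK1 level read by western blot with anti-HPK1 polyclonal antibody, β-actin as loading control.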
T1 sequence (Q92918 whole entry): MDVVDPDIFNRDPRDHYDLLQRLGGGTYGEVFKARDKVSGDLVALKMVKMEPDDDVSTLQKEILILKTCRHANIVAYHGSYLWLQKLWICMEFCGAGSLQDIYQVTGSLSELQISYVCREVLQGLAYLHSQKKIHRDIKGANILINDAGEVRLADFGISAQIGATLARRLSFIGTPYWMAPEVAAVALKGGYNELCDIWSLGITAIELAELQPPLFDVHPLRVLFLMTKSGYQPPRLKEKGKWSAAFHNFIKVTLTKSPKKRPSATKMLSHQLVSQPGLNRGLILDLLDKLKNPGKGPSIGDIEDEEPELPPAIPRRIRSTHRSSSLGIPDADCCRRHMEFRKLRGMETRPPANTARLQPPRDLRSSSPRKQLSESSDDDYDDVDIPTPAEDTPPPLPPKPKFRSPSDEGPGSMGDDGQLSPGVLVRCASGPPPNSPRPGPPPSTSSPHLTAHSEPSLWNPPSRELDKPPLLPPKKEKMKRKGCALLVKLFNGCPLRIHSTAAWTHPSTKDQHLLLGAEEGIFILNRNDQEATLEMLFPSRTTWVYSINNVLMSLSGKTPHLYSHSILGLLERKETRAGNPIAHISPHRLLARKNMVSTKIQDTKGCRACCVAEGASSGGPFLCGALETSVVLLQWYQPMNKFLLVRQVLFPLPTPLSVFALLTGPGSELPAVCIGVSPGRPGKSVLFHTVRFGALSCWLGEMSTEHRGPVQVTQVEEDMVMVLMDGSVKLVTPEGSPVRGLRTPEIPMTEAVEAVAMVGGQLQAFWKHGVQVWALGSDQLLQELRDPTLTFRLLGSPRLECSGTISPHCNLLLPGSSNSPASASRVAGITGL
(A western blot detects proteins with antibodies after separation by electrophoresis.)

Test [2] concerns the target T2, HPK1 protein (Homo sapiens, UniProt Q92918).
T2 construct: purchased Signal Chem M23-11G-10
T2 sequence (Q92918 1-346 limits assumed): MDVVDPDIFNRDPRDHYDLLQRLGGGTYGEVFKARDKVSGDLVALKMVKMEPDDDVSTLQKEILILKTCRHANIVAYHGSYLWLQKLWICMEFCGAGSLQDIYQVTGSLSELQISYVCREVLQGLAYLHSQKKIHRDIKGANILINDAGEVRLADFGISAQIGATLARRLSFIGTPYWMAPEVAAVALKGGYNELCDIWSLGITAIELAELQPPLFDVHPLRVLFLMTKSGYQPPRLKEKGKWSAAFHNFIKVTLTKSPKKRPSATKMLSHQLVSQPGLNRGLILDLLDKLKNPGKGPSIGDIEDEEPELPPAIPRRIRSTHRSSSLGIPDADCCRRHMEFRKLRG
Kind of test: HPK1 enzyme inhibition assay (ADP-Glo). In kind it is biochemical. The settings on record: MBP substrate, ATP, ADP-Glo readout. Put shortly: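 Recombinant human HPK1 preincubated with compound 60 min at 25 °C, then reaction with MBP (0.2 ug/ul, 2× stock) and ATP (20 μM, 2× stock) 60 min at 25 °C. ADP formed detected by ADP-Glo after ATP depletion and conversion to ATP; IC50 calculated from signal.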
(In general: ADP-Glo first removes unused ATP, then detects ADP through luciferase.)

Test [3] concerns IL-2 production in primary mouse CD3+ T cells. Kind of test: Cytokine measurement: IL-2 production in mouse CD3+ T cells (ELISA). It counts as cell-based. The note with it: T-cell, plate bound anti-CD3, 40 hrs; for fold induction at 1 µM: 1 uM compound, read-out: IL-2 production Fold change (1 uM); for fold induction at 3 µM: 3 uM compound, read-out: IL-2 production Fold change (3 uM). Here is the method:
Anti-CD3 Ab was used to provide signal 1 to stimulate mouse CD3+ T cells. Effect of compound stimulation on T cells was measure by IL2 ELISA. Briefly, anti-CD3 Ab was coated onto plates overnight. Isolated T cells from mouse splenocytes were incubated with plate bound CD3 in the presence and absence of compound for 40 hrs. After incubation, the supernatant was collected and IL2 level in the supernatant was determined by mouse IL2 ELISA kit.

For test [4], the target named is T3, HPK1 protein (Mus musculus, UniProt P70218).
T3 construct: the CD3+ T cell population was isolated from spleenocytes of mice; endogenous in cells; host or cells: primary mouse splenic CD3+ (pan) T cells
T3 sequence (P70218 1-827): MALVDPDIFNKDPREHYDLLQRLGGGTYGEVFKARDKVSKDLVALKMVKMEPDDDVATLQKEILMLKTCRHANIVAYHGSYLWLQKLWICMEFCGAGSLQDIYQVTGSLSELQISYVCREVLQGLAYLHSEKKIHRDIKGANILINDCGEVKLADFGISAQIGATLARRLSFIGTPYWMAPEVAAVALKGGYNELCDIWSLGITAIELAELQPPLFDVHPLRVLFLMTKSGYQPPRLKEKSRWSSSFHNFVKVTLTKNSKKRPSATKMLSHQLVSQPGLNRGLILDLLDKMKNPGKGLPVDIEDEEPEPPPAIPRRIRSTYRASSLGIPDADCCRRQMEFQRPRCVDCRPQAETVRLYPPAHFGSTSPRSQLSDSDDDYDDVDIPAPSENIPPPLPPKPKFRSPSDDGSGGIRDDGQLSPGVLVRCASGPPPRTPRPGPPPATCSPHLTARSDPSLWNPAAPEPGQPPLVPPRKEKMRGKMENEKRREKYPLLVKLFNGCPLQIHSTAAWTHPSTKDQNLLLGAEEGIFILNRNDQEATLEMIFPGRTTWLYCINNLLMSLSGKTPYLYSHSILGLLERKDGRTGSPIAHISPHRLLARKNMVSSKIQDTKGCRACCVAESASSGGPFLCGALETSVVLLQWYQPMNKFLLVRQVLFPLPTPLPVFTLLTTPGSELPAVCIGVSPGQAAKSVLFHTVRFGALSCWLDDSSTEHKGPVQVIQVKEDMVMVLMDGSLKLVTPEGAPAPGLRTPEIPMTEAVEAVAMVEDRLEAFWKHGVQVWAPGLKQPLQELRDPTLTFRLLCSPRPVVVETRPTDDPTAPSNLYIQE
The test is described as follows: HPK1 protein degradation in mouse pan T cell (western blot). It counts as cell-based. The note with it: 18 h incubation. Put shortly: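 CD3+ pan T cells were isolated from mouse splenocytes and incubated 18 h with a range of compound concentrations. Lysates were normalised by BCA and run on SDS-PAGE. HPK1 was detected by western blot with an anti-human HPK1 polyclonal antibody, with β-actin as loading control.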

IC50, Dmax and fold induction data for six molecules are collected here from patent publication US20240368159A1, “HPK1 DEGRADERS, COMPOSITIONS COMPRISING THE HPK1 DEGRADER, AND METHODS OF USING THE SAME” (BIOFRONT LTD, priority 2021, published 2024).

The term IC50 denotes the midpoint of a concentration-inhibition curve. The low end stands for greater potency, the high end for weaker potency. Broadly, the Dmax is the greatest extent of degradation seen. A low value points to shallow degradation. On to `O=C1CCC(c2ccc(C3CCN(CCCN4CCN(c5cccc(-c6cnc7[nH]cc(C8CC8)c7c6Cl)c5)C(=O)C4)CC3)cc2)C(=O)N1` (stereo not shown) [Example 73, 3-(4-(1-(3-(4-(3-(4-chloro-3-cyclopropyl-1H-pyrrolo[2,3-b]pyridin-5-yl)phenyl)-3-oxopiperazin-1-yl)propyl)piperidin-4-yl)phenyl)piperidine-2,6-dione], for which the figures for the IC50 with HPK1 p-SLP-76 and against HPK1 protein [2] were at most 300 nM and at most 10 nM, respectively. For the same molecule, the values for the maximal degradation (Dmax) at HPK1 protein [1] and on HPK1 protein [4] were 87% and 95%, respectively. Besides, the fold induction at 1 µM in test [3] was 2. In test [3], the fold induction at 3 µM was under 0.5.
For `O=C1CCC(N2C(=O)c3cc(F)c(N4CCN(CCCS(=O)(=O)N5CCN(c6cccc(-c7cnc8[nH]cc(C9CC9)c8c7Cl)c6)C(=O)C5)CC4)cc3C2=O)C(=O)N1` (stereo not shown) [Example 101, 5-(4-(3-((4-(3-(4-chloro-3-cyclopropyl-1H-pyrrolo[2,3-b]pyridin-5-yl)phenyl)-3-oxopiperazin-1-yl)sulfonyl)propyl)piperazin-1-yl)-2-(2,6-dioxopiperidin-3-yl)-6-fluoroisoindoline-1,3-dione], the IC50 in the test with HPK1 p-SLP-76 is at most 300 nM; against HPK1 protein [2] it was 10 to 100 nM. Besides, the Dmax at HPK1 protein [1] and at HPK1 protein [4] was 95% throughout. Besides, in test [3], the fold induction at 1 µM amounted to 1.7. Also, in test [3], the fold induction at 3 µM is 3.7.
`CCc1c[nH]c2ncc(-c3cccc(N4CCN(CCCN5CCC(c6ccc7c(N8CCC(=O)NC8=O)cccc7c6)CC5)CC4=O)c3)c(Cl)c12` [Example 58, 1-(6-(1-(3-(4-(3-(4-chloro-3-ethyl-1H-pyrrolo[2,3-b]pyridin-5-yl)phenyl)-3-oxopiperazin-1-yl)propyl)piperidin-4-yl)naphthalen-1-yl)dihydropyrimidine-2,4 (1H,3H)-dione]: the half-inhibitory concentration (IC50) in the test on HPK1 p-SLP-76 was 300 to 3000 nM; on HPK1 protein [2], 10 to 100 nM. Further, the Dmax at HPK1 protein [1] stood at 98%; at HPK1 protein [4], 90%. For the same molecule, the fold induction at 1 µM in test [3] came to 2.5. For the same molecule, in test [3], the fold induction at 3 µM came out at 2.
Turning to `O=C1CCC(Nc2ccc(N3CCN(CCCN4CCN(c5cccc(-c6cnc7[nH]cc(C8CC8)c7c6Cl)c5)C(=O)C4)CC3)c(F)c2)C(=O)N1` (stereo not shown) [Example 79, 3-((4-(4-(3-(4-(3-(4-chloro-3-cyclopropyl-1H-pyrrolo[2,3-b]pyridin-5-yl)phenyl)-3-oxopiperazin-1-yl)propyl)piperazin-1-yl)-3-fluorophenyl)amino) piperidine-2,6-dione], the IC50 in the test on HPK1 p-SLP-76 was at most 300 nM. For the same molecule, the 50% inhibitory concentration (IC50) on HPK1 protein [2] is at most 10 nM. In test [3], the fold induction at 1 µM amounted to 2.6 and the fold induction at 3 µM is under 0.5. Further, the Dmax on HPK1 protein [4] is 97%.
With `O=C1CCC(N2C(=O)c3ccc(N4CCC(OCC(=O)N5CCN(c6cccc(-c7cnc8[nH]cc(CC(F)F)c8c7Cl)c6)C(=O)C5)CC4)cc3C2=O)C(=O)N1` (stereo not shown) [Example 36], the IC50 in the test with HPK1 p-SLP-76 is at most 300 nM; on HPK1 protein [2], 10 to 100 nM. The Dmax on HPK1 protein [1] worked out at 94%; on HPK1 protein [4] it was 95%. Further, the fold induction at 1 µM in test [3] was determined as 1.8. In addition, the fold induction at 3 µM in test [3] came to 3.8.
`O=C1CCC(N2Cc3cc(N4CCN(CCCN5CCN(c6cccc(-c7cnc8[nH]cc(C9CC9)c8c7Cl)c6)C(=O)C5)CC4)ccc3C2=O)C(=O)N1` (stereo not shown) [Example 63, 3-(5-(4-(3-(4-(3-(4-chloro-3-cyclopropyl-1H-pyrrolo[2,3-b]pyridin-5-yl)phenyl)-3-oxopiperazin-1-yl)propyl)piperazin-1-yl)-1-oxoisoindolin-2-yl)piperidine-2,6-dione]: the IC50 with HPK1 p-SLP-76 is at most 300 nM. In addition, the Dmax at HPK1 protein [1] was determined as 90%. Further, the half-maximal inhibitory concentration (IC50) at HPK1 protein [2] is at most 10 nM. Besides, in test [3], the fold induction at 1 µM turned out to be 2.1 and the fold induction at 3 µM amounted to 2.
